According to article PMC8010461, “The acyltransferase PMAT1 malonylates brassinolide glucoside” (The Journal of Biological Chemistry, 2021):

Experiments:
UGT73C5 [1] = biological target: T1, UGT73C5 (Arabidopsis thaliana, UniProt Q9ZQ94); test: in vitro glucosylation, product confirmed by HR-MS and HR-MS/MS; format: biochemical; settings: reference compound synthesis; glucosylation at C-23
T1 construct: recombinant GST-tagged UGT73C5
T1 sequence (Q9ZQ94 1-495): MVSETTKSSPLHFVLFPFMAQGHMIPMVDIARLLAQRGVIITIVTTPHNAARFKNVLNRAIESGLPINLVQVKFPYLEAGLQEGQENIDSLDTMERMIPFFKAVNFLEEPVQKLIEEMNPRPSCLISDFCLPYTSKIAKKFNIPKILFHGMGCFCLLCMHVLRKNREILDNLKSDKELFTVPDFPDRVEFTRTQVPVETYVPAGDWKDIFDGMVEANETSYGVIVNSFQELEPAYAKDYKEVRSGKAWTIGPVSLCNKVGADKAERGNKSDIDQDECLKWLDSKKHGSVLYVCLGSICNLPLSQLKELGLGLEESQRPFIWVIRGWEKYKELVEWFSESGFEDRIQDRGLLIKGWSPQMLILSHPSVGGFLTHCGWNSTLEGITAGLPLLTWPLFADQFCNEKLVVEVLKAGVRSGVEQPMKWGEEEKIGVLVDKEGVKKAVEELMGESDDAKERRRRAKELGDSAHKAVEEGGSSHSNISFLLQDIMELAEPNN

UGT73C5 [2] = biological target: T1, UGT73C5; test: preparative in vitro glucosylation, product purified by HPLC; format: biochemical; settings: co-substrate UDP-glucose; glucosylation at C-23
purified protein = substrate: CC(C)[C@@H](C)[C@@H](O[C@@H]1O[C@H](CO)[C@@H](O)[C@H](O)[C@H]1O)[C@H](O)[C@@H](C)[C@H]1CC[C@H]2[C@@H]3COC(=O)[C@H]4C[C@H](O)[C@H](O)C[C@]4(C)[C@H]3CC[C@]12C; test: purified protein; format: biochemical, Arabidopsis thaliana; settings: co-substrate malonyl-CoA 2.5 mM, 50 mM sodium phosphate pH 8.0, 30 °C

CC(C)[C@H](C)[C@@H](O)[C@H](O)[C@@H](C)[C@H]1CC[C@H]2[C@@H]3COC(=O)[C@H]4C[C@H](O)[C@H](O)C[C@]4(C)[C@H]3CC[C@]12C [brassinolide]
in vitro glucosylation, product confirmed by HR-MS and HR-MS/MS (UGT73C5 [1]): BL-23-O-MalGlc as analytical reference, which were generated in vitro with recombinant UGT73C5 and PMAT1

CC(C)[C@@H](C)[C@@H](O)[C@H](O)[C@@H](C)[C@H]1CC[C@H]2[C@@H]3COC(=O)[C@H]4C[C@H](O)[C@H](O)C[C@]4(C)[C@H]3CC[C@]12C [24-epiBL]
preparative in vitro glucosylation, product purified by HPLC (UGT73C5 [2]): 24-epiBL (epiBL) as an acceptor were carried out, and the resulting epiBL-23-O-Glc was purified

B1: At5MAT (Arabidopsis thaliana) (protein)
chain: MVNFNSAVNILEVVQVSPPSSNSLTLPLTYFDLGWLKLHPVDRVLFYHVPELTRSSLISKLKSSLSATLLHYLPLAGRLVWDSIKTKPSIVYSPDDKDAVYLTVAESNGDLSHLSGDEPRPATEFHSLVPELPVSDESARVLAVQVTFFPNQGFSLGVTAHHAVLDGKTTAMFLKAWAHNCKQEQEALPHDLVPSLDRIIVQDPTGLETKLLNRWISASNNKPSLKLFPSKIIGSDILRVTYRLTREDIKKLRERVETESHAKQLRLSTFVITYAYVITCMVKMRGGDPTRFVCVGFASDFRSRLNPPLPPTFFGNCIVGSGDFDVKAEPILEEGEGKGFITAVETLTGWVNGLCPENIEKNMLLPFEAFKRMEPGRQMISVAGSTRLGIYGSDFGWGKPVKVEIVTIDKDASVSLSESGDGSGGVEVGVCLKKDDVERFGSLFSIGLE
notes: full ORF, GST fusion (pGEX-4T-2-At5MAT), E. coli BL21, glutathione Sepharose purified; GST tag kept
Km (purified protein; 240 min): 71 µM

B2: PMAT1 (Arabidopsis thaliana) (protein)
chain: MVNEEMESSLKVIDVARVTPSNSDSSESLTLPLTFFDLLWYKLHAVERVIFYKLTDASRPFFDSVIVPNLKTSLSSSLSHYLPLAGKLVWEPLDPKPKIVYTPNDAVSFTVAESNADFSRLTGKEPFPTTELYPLVPELHVSDDSASAVSFQVTLFPNQGFCISVNAHHAVLDGKTTTNFLKSWARTCKNQDSFLPQDLIPVYDRTVIKDPMDLDTKILNAWHRVAKVFTGGKEPENPKSLKLLWSPEIGPDVFRYTLNLTREDIQKLRERLKKESSSSSVSSSPKELRLSTFVIVYSYALTCLIKARGGDPSRPVGYGFAVDCRSLMVPPVPSSYFGNCVSACFKMSLTAETFMSEEGFLAAARMVSDSVEALDENVALKIPEILEGFTTLSPGTQVLSVAGSTRFGVYGLDFGWGRPEKVVVVSIDQGEAISFAESRDGSGGVELGFSLKKHEMDVLVDLLHKGLEN
notes: full ORF, GST fusion (pGEX-4T-2-PMAT1), E. coli BL21, glutathione Sepharose purified; GST tag kept
Km (purified protein; 20 min): 235 µM
